Results taken from PubChem BioAssay (NCI).
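Test compounds were applied to cells in 96-well plates for 48 hours at 5 doses. GI50 = concentration required for 50% inhibition of growth. TGI is the concentration that stops growth completely.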

Columns and labels:
Assay in all cases: inhibition of tumour cell growth, NCI panel, 48 h
[1] = tested on: MDA-MB-468 breast
[2] = tested on: 786-0 renal
[3] = tested on: A498 renal
[4] = tested on: A549 NSCLC
[5] = tested on: ACHN renal
[6] = tested on: BT-549 breast
[7] = tested on: CAKI-1 renal
[8] = tested on: CCRF-CEM leukemia
[9] = tested on: COLO 205 colon
[10] = tested on: DU-145 prostate
[11] = tested on: EKVX NSCLC
[12] = tested on: HCC-2998 colon
[13] = tested on: HCT-116 colon
[14] = tested on: HCT-15 colon
[15] = tested on: HL-60(TB) leukemia
[16] = tested on: HOP-62 NSCLC
[17] = tested on: HOP-92 NSCLC
[18] = tested on: HS 578T breast
[19] = tested on: HT29 colon
[20] = tested on: IGROV1 ovarian
[21] = tested on: K-562 leukemia
[22] = tested on: KM12 colon
[23] = tested on: LOX IMVI melanoma
[24] = tested on: M14 melanoma
[25] = tested on: MALME-3M melanoma
[26] = tested on: MCF7 breast
[27] = tested on: MDA-MB-231 breast
[28] = tested on: MDA-MB-435
[29] = tested on: MOLT-4 leukemia
[30] = tested on: NCI-H226 lung
[31] = tested on: NCI-H23 lung
[32] = tested on: NCI-H460 lung
[33] = tested on: NCI-H522 lung
[34] = tested on: OVCAR-3 ovarian
[35] = tested on: OVCAR-4 ovarian
[36] = tested on: OVCAR-5 ovarian
[37] = tested on: OVCAR-8 ovarian
[38] = tested on: PC-3 prostate
[39] = tested on: RPMI-8226 leukemia
[40] = tested on: RXF 393 renal
[41] = tested on: SF-268 CNS
[42] = tested on: SF-295 CNS
[43] = tested on: SF-539 CNS
[44] = tested on: SK-MEL-28 melanoma
[45] = tested on: SK-MEL-5 melanoma
[46] = tested on: SK-OV-3 ovarian
[47] = tested on: SN12C renal
[48] = tested on: SNB-19 CNS
[49] = tested on: SNB-75 CNS
[50] = tested on: SR leukemia
[51] = tested on: SW-620 colon
[52] = tested on: T-47D breast
[53] = tested on: TK-10 renal
[54] = tested on: U251 CNS
[55] = tested on: UACC-257 melanoma
[56] = tested on: UACC-62 melanoma
[57] = tested on: UO-31 renal

N#Cc1nn(-c2cc(=O)[nH]c3ccc(Br)cc23)c(N)c1C#N
GI50 [1]: > 100 µM | TGI [1]: > 100 µM

COc1cc(N2CCC(N3CCN(C)CC3)CC2)ccc1Nc1ncc(Cl)c(Nc2ccccc2S(=O)(=O)C(C)C)n1
GI50 [1]: 0.483 µM | TGI [1]: 1.78 µM

O=[N+]([O-])c1cc2c(c([N+](=O)[O-])c1)Nc1ccccc1O2
GI50 [1]: 2.14 µM | TGI [1]: 9.84 µM

O=C(NCCCCCCNC(=O)OCc1ccc2c(Cl)cc(Cl)c(O)c2n1)OCc1ccc2c(Cl)cc(Cl)c(O)c2n1
GI50 [1]: 0.59 µM | TGI [1]: 2.14 µM

CC(CN)[C@@H]1CC[C@]2(CO)CC[C@]3(C)[C@H](CC[C@@H]4[C@@]5(C)CCC(N)C(C)(C)[C@@H]5CC[C@]43C)[C@@H]12 (some centres not stated)
GI50 [1]: 1.59 µM | TGI [1]: 3.25 µM

Oc1ccc(-c2nnc(SCc3ccc(O)c4ncccc34)n2-c2ccccc2)cc1
GI50 [1]: 0.421 µM | TGI [1]: 2.83 µM

CCN1CCN(c2ccc(Nc3ncc4ccc5ncn(C(C)C)c5c4n3)nc2)CC1
GI50 [1]: 0.177 µM | TGI [1]: 0.444 µM

Cc1ccc(C2=NN(c3ccc(S(N)(=O)=O)cc3)C(c3cn(-c4ccccc4)nc3-c3ccccc3)C2)cc1 (configuration not stated)
GI50 [1]: 24.3 µM | TGI [1]: > 100 µM

Cc1cc2nc(C(Cl)Cl)nc(-c3ccccc3)n2n1
GI50 [1]: 1.81 µM | TGI [1]: 4.45 µM

CCN(CC)c1ccnc(CNCCSC(c2ccccc2)(c2ccccc2)c2ccc(OC)cc2)c1
GI50 [2]: 1.75 µM | TGI [2]: 4.15 µM | GI50 [3]: 13.9 µM | TGI [3]: 29.7 µM | GI50 [4]: 3.74 µM | TGI [4]: 17.1 µM | GI50 [5]: 4.52 µM | TGI [5]: 17.2 µM | GI50 [6]: 2.62 µM | TGI [6]: 6.87 µM | GI50 [7]: 3.63 µM | TGI [7]: 16 µM | GI50 [8]: 3.13 µM | TGI [8]: 10.8 µM | GI50 [9]: 1.72 µM | TGI [9]: 3.52 µM | GI50 [10]: 3.78 µM | TGI [10]: 13.6 µM | GI50 [11]: 3.61 µM | TGI [11]: 14.9 µM | GI50 [12]: 1.79 µM | TGI [12]: 3.41 µM | GI50 [13]: 2 µM | TGI [13]: 8.32 µM | GI50 [14]: 2.87 µM | TGI [14]: 10.8 µM | GI50 [15]: 1.65 µM | TGI [15]: 4.24 µM | GI50 [16]: 3.09 µM | TGI [16]: 12.3 µM | GI50 [17]: 2.36 µM | TGI [17]: 9.84 µM | GI50 [18]: 2.26 µM | TGI [18]: 6.8 µM | GI50 [19]: 1.98 µM | TGI [19]: 4.45 µM | GI50 [20]: 3.82 µM | TGI [20]: 15.7 µM | GI50 [21]: 2.68 µM | TGI [21]: 8.97 µM | GI50 [22]: 3.41 µM | TGI [22]: 12.4 µM | GI50 [23]: 1.9 µM | TGI [23]: 3.86 µM | GI50 [24]: 1.85 µM | TGI [24]: 4.86 µM | GI50 [25]: 2.82 µM | TGI [25]: 9.49 µM | GI50 [26]: 1.3 µM | TGI [26]: 5.96 µM | GI50 [27]: 2.32 µM | TGI [27]: 5.78 µM | GI50 [28]: 1.44 µM | TGI [28]: 5.12 µM | GI50 [1]: 1.66 µM | TGI [1]: 4.49 µM | GI50 [29]: 2.19 µM | TGI [29]: 7.13 µM | GI50 [30]: 3.1 µM | TGI [30]: 13.6 µM | GI50 [31]: 3.04 µM | TGI [31]: 10.2 µM | GI50 [32]: 3.12 µM | TGI [32]: 10.3 µM | GI50 [33]: 2.44 µM | TGI [33]: 7.29 µM | GI50 [34]: 3.18 µM | TGI [34]: 11 µM | GI50 [35]: 4.32 µM | TGI [35]: 20.6 µM | GI50 [36]: 2.93 µM | TGI [36]: 10.6 µM | GI50 [37]: 2.71 µM | TGI [37]: 11.2 µM | GI50 [38]: 3.19 µM | TGI [38]: 13.3 µM | GI50 [39]: 2.3 µM | TGI [39]: 6.43 µM | GI50 [40]: 2.4 µM | TGI [40]: 7.2 µM | GI50 [41]: 4.35 µM | TGI [41]: 19 µM | GI50 [42]: 2.2 µM | TGI [42]: 5.86 µM | GI50 [43]: 2.15 µM | TGI [43]: 4.27 µM | GI50 [44]: 4.2 µM | TGI [44]: 15 µM | GI50 [45]: 1.68 µM | TGI [45]: 3.06 µM | GI50 [46]: 3.22 µM | TGI [46]: 13.2 µM | GI50 [47]: 3.43 µM | TGI [47]: 13.6 µM | GI50 [48]: 4.3 µM | TGI [48]: 15.6 µM | GI50 [49]: 1.65 µM | TGI [49]: 9.09 µM | GI50 [50]: 2.11 µM | TGI [50]: 12.4 µM | GI50 [51]: 3.14 µM | TGI [51]: 13.2 µM | GI50 [52]: 2.94 µM | TGI [52]: 12 µM | GI50 [53]: 5.9 µM | TGI [53]: 19.2 µM | GI50 [54]: 2.92 µM | TGI [54]: 10.7 µM | GI50 [55]: 4.04 µM | TGI [55]: 15.9 µM | GI50 [56]: 4.43 µM | TGI [56]: 17 µM | GI50 [57]: 3.86 µM | TGI [57]: 17 µM
